These results are taken from ChEMBL document CHEMBL5614422, “Design, synthesis and biological evaluation of N-salicyloyl tryptamine derivatives as multifunctional neuroprotectants for the treatment of ischemic stroke” (Eur J Med Chem, 2024).

System in the first data set: not listed separately
The data set is described as follows: Cytotoxicity against mouse HT-22 cells assessed as cell viability incubated for 24 hrs by CCK-8 method.
Details: not given
Type of data set: toxicity, cell-based. Background: Formazan colour is commonly taken as a measure of viable cells.
Usually IC50 stands for the concentration that inhibits the measured activity by half. Consider `O=C(NCCc1c[nH]c2ccccc12)c1cccc(Cl)c1O`, for which the IC50 at 24 h came out at 52 µM.
The same measure, in the same setting: for `COc1ccc2[nH]cc(CCNC(=O)c3ccc(C)cc3O)c2c1` the value was more than 100 µM; for `Cc1ccc(C(=O)NCCc2c[nH]c3cccc(Br)c23)c(O)c1`, more than 100 µM; for `Cc1cccc(O)c1C(=O)NCCc1c[nH]c2ccccc12`, 60 µM.
The same measure, in the same setting: as for `Cc1ccc(C(=O)NCCc2c[nH]c3cc(N(C)C)ccc23)c(O)c1`, the figure is 46.4 µM.
The same measure, in the same setting: for `Cc1ccc(C(=O)NCCc2c[nH]c3c(F)cccc23)c(O)c1` the value was 86.2 µM.
With `Cc1ccc(C(=O)NCCc2c[nH]c3cccc(C)c23)c(O)c1`, the IC50 at 24 h was more than 100 µM.

The subject of the next data set is HT-22. The data set can be described thus: Neuroprotective activity against OGD/R induced cell damage in mouse HT-22 cells assessed as cell viability at 10 uM measured after 24 hrs by MTT assay (reference value: 69.01 +/-2.90%). Type of data set: functional. Conditions: read-out: Activity.
Consider `O=C(NCCc1c[nH]c2ccccc12)c1cccc(Cl)c1O`, for which the viability at 10 µM stood at 87.9%.
`COc1ccc2[nH]cc(CCNC(=O)c3ccc(C)cc3O)c2c1`: the viability at 10 µM turned out to be 74%.
`Cc1ccc(C(=O)NCCc2c[nH]c3cccc(Br)c23)c(O)c1`: the viability at 10 µM is 73.1%.
On to `Cc1cccc(O)c1C(=O)NCCc1c[nH]c2ccccc12`, for which the viability at 10 µM amounted to 88.4%.
The same measure, in the same setting: as for `Cc1ccc(C(=O)NCCc2c[nH]c3cc(N(C)C)ccc23)c(O)c1`, the figure is 88.9%.
`Cc1ccc(C(=O)NCCc2c[nH]c3c(F)cccc23)c(O)c1`: the viability at 10 µM amounted to 92.5%.
For `Cc1ccc(C(=O)NCCc2c[nH]c3cccc(C)c23)c(O)c1`, the viability at 10 µM came to 52.4%.

System in the next data set: not listed separately
The data set is described as follows: Cytotoxicity against mouse BV-2 cells assessed as cell viability incubated for 24 hrs by CCK-8 method. It is filed as toxicity, cell-based.
Details: not given
For `O=C(NCCc1c[nH]c2ccccc12)c1cccc(Cl)c1O`, the 50% inhibitory concentration (IC50) at 24 h was 50.4 µM.
The same measure, in the same setting: for `COc1ccc2[nH]cc(CCNC(=O)c3ccc(C)cc3O)c2c1` the value was more than 100 µM; for `Cc1ccc(C(=O)NCCc2c[nH]c3cccc(Br)c23)c(O)c1`, more than 100 µM.
Take `Cc1cccc(O)c1C(=O)NCCc1c[nH]c2ccccc12`: the IC50 at 24 h came out at 43.6 µM.
On to `Cc1ccc(C(=O)NCCc2c[nH]c3cc(N(C)C)ccc23)c(O)c1`, for which the IC50 at 24 h worked out at 52.4 µM.
In the case of `Cc1ccc(C(=O)NCCc2c[nH]c3c(F)cccc23)c(O)c1`, the 50% inhibitory concentration (IC50) at 24 h stood at 43 µM.
The same measure, in the same setting: as for `Cc1ccc(C(=O)NCCc2c[nH]c3cccc(C)c23)c(O)c1`, the figure is more than 100 µM.
